Legend:
Type in all cases: biochemical
Settings in all cases: 15 nM tritium labelled cAMP, 1 h at room temperature
[1] = target: PDE1B (Homo sapiens, UniProt Q01064); experiment: PDE1 inhibition assay (SPA, tritium labelled cAMP), PDE1B
Experimental: (§1) PDE1A, PDE1B and PDE1C assays were performed as follows: the assays was performed in 60 μL samples containing a fixed amount of the PDE1 enzym1 (sufficient to convert 20-25% of the cyclic nucleotide substrate), a buffer (50 mM HEPES pH 7.6; 10 mM MgCl2; 0.02% Tween20), 0.1 mg/ml BSA, 15 nM tritium labelled cAMP and varying amounts of inhibitors. Reactions were initiated by addition of the cyclic nucleotide substrate, and reactions were allowed to proceed for 1 h at room temperature before being terminated through mixing with 20 μL (0.2 mg) yttrium silicate SPA beads (PerkinElmer). The beads were allowed to settle for 1 h in the dark before the plates were counted in a Wallac 1450 Microbeta counter. The measured signals were converted to activity relative to an uninhibited control (100%) and IC50 values were calculated using XlFit (model 205, IDBS).

[2] = target: PDE1C (Homo sapiens, UniProt Q14123); experiment: PDE1 inhibition assay (SPA, tritium labelled cAMP), PDE1C
Experimental: as §1

[3] = target: PDE1A (Homo sapiens, UniProt P54750); experiment: PDE1 inhibition assay (SPA, tritium labelled cAMP), PDE1A
Experimental: as §1

Chain of PDE1A (P54750 whole entry): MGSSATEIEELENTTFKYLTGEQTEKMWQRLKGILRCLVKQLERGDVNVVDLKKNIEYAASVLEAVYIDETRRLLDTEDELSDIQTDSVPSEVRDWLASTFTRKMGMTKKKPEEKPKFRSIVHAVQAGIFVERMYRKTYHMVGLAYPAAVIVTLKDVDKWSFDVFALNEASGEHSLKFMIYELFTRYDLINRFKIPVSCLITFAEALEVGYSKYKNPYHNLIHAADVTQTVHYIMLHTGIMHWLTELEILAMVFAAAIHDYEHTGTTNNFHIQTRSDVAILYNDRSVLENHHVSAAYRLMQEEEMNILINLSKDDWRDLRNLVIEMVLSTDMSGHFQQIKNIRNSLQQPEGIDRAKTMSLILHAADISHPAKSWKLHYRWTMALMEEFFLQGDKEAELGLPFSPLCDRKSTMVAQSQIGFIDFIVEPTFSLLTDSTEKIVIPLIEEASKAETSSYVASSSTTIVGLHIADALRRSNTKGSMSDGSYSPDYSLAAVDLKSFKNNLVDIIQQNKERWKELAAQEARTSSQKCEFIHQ
Chain of PDE1B (Q01064 whole entry): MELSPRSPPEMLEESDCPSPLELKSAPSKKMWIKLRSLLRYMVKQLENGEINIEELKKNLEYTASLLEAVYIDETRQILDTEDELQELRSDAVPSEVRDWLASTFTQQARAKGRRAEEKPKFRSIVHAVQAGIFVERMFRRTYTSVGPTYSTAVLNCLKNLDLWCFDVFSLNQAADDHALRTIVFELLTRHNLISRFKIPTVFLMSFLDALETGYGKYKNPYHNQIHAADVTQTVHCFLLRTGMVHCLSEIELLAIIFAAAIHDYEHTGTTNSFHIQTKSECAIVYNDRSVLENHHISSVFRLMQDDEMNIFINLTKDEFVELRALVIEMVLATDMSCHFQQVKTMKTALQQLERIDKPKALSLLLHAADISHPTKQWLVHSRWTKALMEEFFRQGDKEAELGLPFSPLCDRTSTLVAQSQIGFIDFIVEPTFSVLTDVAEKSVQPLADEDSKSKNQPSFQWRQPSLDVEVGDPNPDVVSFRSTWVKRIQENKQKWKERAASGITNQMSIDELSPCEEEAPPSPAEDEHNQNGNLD
Chain of PDE1C (Q14123 whole entry): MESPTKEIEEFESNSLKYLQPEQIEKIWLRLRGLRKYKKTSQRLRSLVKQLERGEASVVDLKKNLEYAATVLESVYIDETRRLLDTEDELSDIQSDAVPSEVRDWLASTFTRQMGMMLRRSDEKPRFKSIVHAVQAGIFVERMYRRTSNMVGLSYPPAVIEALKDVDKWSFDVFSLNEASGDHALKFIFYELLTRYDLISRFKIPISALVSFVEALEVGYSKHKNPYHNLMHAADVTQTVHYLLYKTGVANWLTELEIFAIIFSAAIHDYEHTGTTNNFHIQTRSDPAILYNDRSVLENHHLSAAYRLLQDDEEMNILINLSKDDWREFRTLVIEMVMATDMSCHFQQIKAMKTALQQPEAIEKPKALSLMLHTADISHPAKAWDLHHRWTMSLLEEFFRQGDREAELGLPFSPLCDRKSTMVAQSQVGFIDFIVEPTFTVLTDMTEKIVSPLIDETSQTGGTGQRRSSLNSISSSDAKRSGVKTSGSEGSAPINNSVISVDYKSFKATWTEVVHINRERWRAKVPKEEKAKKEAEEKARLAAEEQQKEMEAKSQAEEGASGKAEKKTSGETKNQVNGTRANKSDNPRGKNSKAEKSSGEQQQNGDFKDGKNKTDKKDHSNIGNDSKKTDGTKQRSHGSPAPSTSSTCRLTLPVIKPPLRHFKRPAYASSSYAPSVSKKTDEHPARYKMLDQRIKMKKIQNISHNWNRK

IC50 [1] [nM]	IC50 [2] [nM]	IC50 [3] [nM]	Compound
650	1800	1900	COc1ccc2c(NC3CCOC3C)ncnc2c1F (single isomer, unassigned) [3 Stereoisomer 1]
7	5	85	COc1ccc2c(N(C)C3(C)CCOC3C)ncnc2c1Cl (single isomer, unassigned) [13 Stereoisomer 3]
1200	550	2260	COc1ccc2c(N3CC[C@@H]4OCCC43)ncnc2c1Cl (single isomer, unassigned) [9 Stereoisomer 2]
510	200	2640	COc1ccc2c(N(C)C3CCOC3C)ncnc2c1Cl (single isomer, unassigned) [14 Stereoisomer 1]
460	250	1500	COc1ccc2c(NC3CCOC3C)ncnc2c1Cl (single isomer, unassigned) [5 stereoisomer 3]
58	36	450	COc1ccc2c(NC3CCOC3C)ncnc2c1Cl (single isomer, unassigned) [5 stereoisomer 4]
31	15	152	COc1ccc2c(N(C)C3(C)CCOC3)ncnc2c1Cl (single isomer, unassigned) [11 Stereoisomer 2]
550	1400	2470	COc1ccc2c(N(C)C3CCOC3C)ncnc2c1F (single isomer, unassigned) [18 Stereoisomer 2]
65	33	292	COc1ccc2c(N(C)C3(C)CCOC3)ncnc2c1Cl (single isomer, unassigned) [11 Stereoisomer 1]
5	22	73	COc1ccc2c(NC3(C)CCOC3C)ncnc2c1F (single isomer, unassigned) [17 Stereoisomer 2]
430	1200	1180	COc1ccc2c(NC3CCOC3)ncnc2c1F (single isomer, unassigned) [16 Stereoisomer 1]
330	140	1800	COc1ccc2c(N(C)C3CCOC3)ncnc2c1Cl (single isomer, unassigned) [6 stereoisomer 1]
18	76	100	COc1ccc2c(N(C)C3CCOC3)ncnc2c1F (single isomer, unassigned) [2 Stereoisomer 2]
410	200	2550	COc1ccc2c(N(C)C3(C)CCOC3C)ncnc2c1Cl (single isomer, unassigned) [13 Stereoisomer 1]
75	48	490	COc1ccc2c(NC3(C)CCOC3)ncnc2c1Cl (single isomer, unassigned) [7 stereoisomer 2]
7	4	76	COc1ccc2c(NC3(C)CCOC3C)ncnc2c1Cl (single isomer, unassigned) [12 Stereoisomer 4]
100	390	451	COc1ccc2c(NC3(C)CCOC3C)ncnc2c1F (single isomer, unassigned) [17 Stereoisomer 3]
81	230	315	COc1ccc2c(NC3CCOC3)ncnc2c1F (single isomer, unassigned) [16 Stereoisomer 2]
18	10	170	COc1ccc2c(N(C)C3CCOC3C)ncnc2c1Cl (single isomer, unassigned) [14 Stereoisomer 2]
15	11	150	COc1ccc2c(N(C)C3CCOC3)ncnc2c1Cl (single isomer, unassigned) [6 stereoisomer 2]
140	440	408	COc1ccc2c(NC3(C)CCOC3C)ncnc2c1F (single isomer, unassigned) [17 Stereoisomer 4]
300	1300	1100	COc1ccc2c(N(C)C3CCOC3)ncnc2c1F (single isomer, unassigned) [2 Stereoisomer 1]
110	320	688	COc1ccc2c(N(C)C3(C)CCOC3)ncnc2c1F (single isomer, unassigned) [15 Stereoisomer 1]
200	130	853	COc1ccc2c(NC3(C)CCOC3C)ncnc2c1Cl (single isomer, unassigned) [12 Stereoisomer 1]
32	86	229	COc1ccc2c(N(C)C3(C)CCOC3C)ncnc2c1F (single isomer, unassigned) [19 Stereoisomer 1]

IC50 [1] [nM]	IC50 [2] [nM]	IC50 [3] [nM]	Compound
510	1100	1730	COc1ccc2c(N(C)C3CCOC3C)ncnc2c1F (single isomer, unassigned) [18 Stereoisomer 1]
27	98	184	COc1ccc2c(NC3(C)CCOC3C)ncnc2c1F (single isomer, unassigned) [17 Stereoisomer 1]
2200	2500	4030	COc1ccc2c(N3CC[C@@H]4OCCC43)ncnc2c1F (single isomer, unassigned) [8 Stereoisomer 2]
45	33	190	COc1ccc2c(NC3CCOC3)ncnc2c1Cl (single isomer, unassigned) [4 Stereoisomer 2]
49	11	147	COc1ccc2c(N3CC[C@@H]4OCCC43)ncnc2c1Br (single isomer, unassigned) [10 Stereoisomer 1]
87	260	420	COc1ccc2c(NC3CCOC3C)ncnc2c1F (single isomer, unassigned) [3 Stereoisomer 2]
420	1200	2490	COc1ccc2c(N(C)C3(C)CCOC3C)ncnc2c1F (single isomer, unassigned) [19 Stereoisomer 3]
–	210	–	COc1ccc2c(N3CC[C@@H]4OCCC43)ncnc2c1Br (single isomer, unassigned) [10 Stereoisomer 2]
26	13	300	COc1ccc2c(N(C)C3(C)CCOC3C)ncnc2c1Cl (single isomer, unassigned) [13 Stereoisomer 4]
30	14	285	COc1ccc2c(N(C)C3CCOC3C)ncnc2c1Cl (single isomer, unassigned) [14 Stereoisomer 4]
10	34	97	COc1ccc2c(N(C)C3(C)CCOC3C)ncnc2c1F (single isomer, unassigned) [19 Stereoisomer 4]
37	35	230	COc1ccc2c(NC3CCOC3C)ncnc2c1Cl (single isomer, unassigned) [5 stereoisomer 2]
21	14	145	COc1ccc2c(NC3(C)CCOC3C)ncnc2c1Cl (single isomer, unassigned) [12 Stereoisomer 3]
490	200	1530	COc1ccc2c(N(C)C3CCOC3C)ncnc2c1Cl (single isomer, unassigned) [14 Stereoisomer 3]
310	200	790	COc1ccc2c(NC3CCOC3)ncnc2c1Cl (single isomer, unassigned) [4 Stereoisomer 1]
47	81	333	COc1ccc2c(N(C)C3(C)CCOC3)ncnc2c1F (single isomer, unassigned) [15 Stereoisomer 2]
60	120	515	COc1ccc2c(N(C)C3CCOC3C)ncnc2c1F (single isomer, unassigned) [18 Stereoisomer 4]
65	38	286	COc1ccc2c(NC3(C)CCOC3C)ncnc2c1Cl (single isomer, unassigned) [12 Stereoisomer 2]
23	11	200	COc1ccc2c(NC3(C)CCOC3)ncnc2c1Cl (single isomer, unassigned) [7 stereoisomer 1]
65	260	250	COc1ccc2c(NC3(C)CCOC3)ncnc2c1F (single isomer, unassigned) [1 Stereoisomer 2]
21	60	72	COc1ccc2c(N3CC[C@@H]4OCCC43)ncnc2c1F (single isomer, unassigned) [8 Stereoisomer 1]
34	17	207	COc1ccc2c(N(C)C3(C)CCOC3C)ncnc2c1Cl (single isomer, unassigned) [13 Stereoisomer 2]
49	27	300	COc1ccc2c(NC3CCOC3C)ncnc2c1Cl (single isomer, unassigned) [5 stereoisomer 1]
120	410	600	COc1ccc2c(NC3CCOC3C)ncnc2c1F (single isomer, unassigned) [3 Stereoisomer 4]
